Results reported in patent US4863902A, “Treatment of cancer” (Wakunaga Seiyaku Kabushiki Kaisha, priority 1985, dated 1989).

How the values were obtained:
[1] = test system: Colon adenocarcinoma 26 (mouse colon adenocarcinoma); assay: Tumor weight of transplanted Colon adenocarcinoma 26 in BALB/c mice; assay type: in vivo; conditions: Table 5, 5-FU 150 mg/Kg, hEGF-II 100 μg/Kg subcutaneous, average ± standard error of 6-12 mice
Method: After BALB/c mice were preliminarily fed in a thermostat (23°±0.5° C.), humidistat (60±5%) room for 1 week, those which appear to be healthy weighing 18-20 g were provided for the present experiment in 6-12 mice per 1 group.
(§1) Colon adenocarcinoma 26 (mouse colon adenocarcinoma) was minced into pieces and about 0.1 to 0.2 ml thereof was transplanted subcutaneously on the right side of mouse abdomen by a cell transplanting needle (trocker). Six days after transplantation, the size of tumor, namely longer diameter (a mm) and shorter diameter (b mm) of tumor were measured and the tumor weight was calculated according to the formula shown below [Instruction 14 (NCI) 1980].
(§2) Tumor weight (mg)=ab^2 /2
Before carrying out experiments, tumor weights were measured immediately before administration of the compounds and the mice were grouped into 3 groups by use of random numbers so that there may be no difference in average value of the tumor weights on initiation of experiments between the respective groups to make even the average values of tumor weights of the respective groups, and thereafter the compounds were administered to the respective groups.
In this FIGURE, the axis of abscissa indicates the experimental days with the day of compound administration being the day 1, and the axis of ordinate indicates tumor cell growth ratio which is the ratio of the tumor weight after elapse of the respective days relative to the tumor weight on the day 1 as being 100%.

[2] = test system: Colon adenocarcinoma 38 (mouse colon adenocarcinoma); assay: Tumor weight of transplanted Colon adenocarcinoma 38 in C57BL/6 mice; assay type: in vivo; conditions: for Tumor weight (day 1 = 100): 5-FU 150 mg/Kg
Method: as §1, with “38” for “26”, “Eleven” for “Six”
as §2
In the Table, days indicate the experimental days with the day of compound administration being as the day 1, and the tumor weight immediately before administration of compound of day 1 is made 100. The respective values show the average value ± standard error of case numbers of 10 to 20, in the Table, the marks of (*), * and *** indicate the statistical significance difference of the combined administration group relative to the 5-FU single administration group (the definition of P is as defined above).

[3] = test system: P388/5-FU (mouse leukemia resistant to 5-FU); assay: Tumor weight of solid tumor of 5-FU resistant mouse leukemia in CDF1 mice; assay type: in vivo; conditions: 5-FU 150 mg/Kg
Text: CDF1 strain male mice were employed. The feeding conditions, etc., were the same as in Experimental Example 1.
Of P388 (mouse leukemia), the strain having chemical resistance to 5-FU (P388/5-FU) was previously grown in the abdomen of CDF1 mouse. Eight days after transplantation into the abdomen, ascites (containing tumor cells) were collected, diluted with a liquid medium and transplanted subcutaneously at the axilla of mouse in 3×10^6 cells per mouse. Eight days after transplantation, the size of tumor was measured according to the same method as in Example 1 (Colon 26) and the tumor weight was calculated.
The grouping operation of mouse on initiation of experiments was conducted in the same manner as in Experimental Example 1. As for administration of compounds, the same procedure as in Experimental Example 1 was used. However, the administration was effected twice on the day 1 and the day 3.

[4] = test system: mouse ovarian tumor M5076; assay: Tumor weight of solid tumor of mouse ovarian tumor in BDF1 mice; assay type: in vivo; conditions: Table 10, 5-FU 150 mg/Kg, hEGF, [Leu^21 ]-hEGF or hEGF-II 100 μg/Kg subcutaneous, average ± standard error
Method: BDF1 male mice were employed. The feeding conditions were the same as in Experimental Example 1.
Mouse ovarian tumor M5076 was transplanted subcutaneously at the axialla of mouse in 1-2×10^6 cells per mouse. 12 days after transplantation, the size of tumor was measured according to the same method as in Experimental Example 1 (Colon 26) and the tumor weight was calculated.
The grouping operation on initiation of Experiments was conducted in the same manner as in Experimental Example 1. The compounds were administered in the same manner as in Experimental Example 9.
The experiment was carried out in the samme manner as in Experimental Examples 1, 7 and as in Experimental Example 17 for others.

[5] = Body weight (minus tumor weight) of Colon 26 bearing mice; assay type: in vivo, mouse; conditions: Experimental Example 5; 150 mg/Kg 5-FU, 100 μg/Kg hEGF subcutaneous
Method: That is, in Experimental Example 1, with the value of the body weight of the experimental animal immediately before administration of the drug from which the tumor weight is detracted as being 100, the ratio of the value of the total body weight of the experimental animal from which the tumor weight is detracted on the respective days after administration of the drug relative to this weight was calculated to obtain the results shown in FIG. 4. The symbols in the Figure are the same as in Experimental Example 1.

## O=c1[nH]cc(F)c(=O)[nH]1 [5-FU, 5-fluorouracil]
[1]; day 2
  Tumor weight (day 1 = 100): 121.1 ± 9.6
[1]; day 3
  Tumor weight (day 1 = 100): 120.4 ± 7.1
[1]; day 4
  Tumor weight (day 1 = 100): 124.0 ± 9.6
[1]; day 5
  Tumor weight (day 1 = 100): 122.5 ± 10.7
[1]; day 6
  Tumor weight (day 1 = 100): 129.7 ± 11.5
[1]; day 7
  Tumor weight (day 1 = 100): 156.8 ± 14.1
[2]; Table 1, day 2, hEGF 100 μg/Kg subcutaneous on day 1, average ± standard error
  Tumor weight (day 1 = 100): 106.3 ± 31.8
[2]; Table 1, day 4, hEGF 100 μg/Kg subcutaneous on day 1, average ± standard error
  Tumor weight (day 1 = 100): 84.5 ± 7.0
[2]; Table 1, day 5, hEGF 100 μg/Kg subcutaneous on day 1, average ± standard error
  Tumor weight (day 1 = 100): 75.4 ± 10.3
[2]; Table 1, day 6, hEGF 100 μg/Kg subcutaneous on day 1, average ± standard error
  Tumor weight (day 1 = 100): 86.2 ± 9.5
[2]; Table 1, day 7, hEGF 100 μg/Kg subcutaneous on day 1, average ± standard error
  Tumor weight (day 1 = 100): 121.1 ± 13.0
[2]; Table 1, day 8, hEGF 100 μg/Kg subcutaneous on day 1, average ± standard error
  Tumor weight (day 1 = 100): 147.3 ± 16.0
[2]; Table 1, day 9, hEGF 100 μg/Kg subcutaneous on day 1, average ± standard error
  Tumor weight (day 1 = 100): 210.9 ± 22.9
[2]; Table 11, day 2, FGF 100 μm/10 ml/Kg subcutaneous, average ± standard error of 6-8 mice
  Tumor weight (day 1 = 100): 102.6 ± 6.7
[2]; Table 11, day 3, FGF 100 μm/10 ml/Kg subcutaneous, average ± standard error of 6-8 mice
  Tumor weight (day 1 = 100): 99.7 ± 7.2
[2]; Table 11, day 4, FGF 100 μm/10 ml/Kg subcutaneous, average ± standard error of 6-8 mice
  Tumor weight (day 1 = 100): 94.9 ± 8.7
[2]; Table 11, day 5, FGF 100 μm/10 ml/Kg subcutaneous, average ± standard error of 6-8 mice
  Tumor weight (day 1 = 100): 158.6 ± 22.8
[2]; Table 12, day 4 after compound administration, weight before administration = 100, Tegafur 400, 5-FU 150, Mitomycin-C 5, Cisplatin 5 mg/Kg, hIGF-II 50 μg/Kg subcutaneous, average ± standard error of 8-10 mice
  Tumor weight ratio(%): 84.5 ± 7.0%
[2]; Table 14, hTGFα 100 μg/10 ml/Kg with 5-FU, Tegafur, Mitomycin-C, Adriamycin or Cisplatin, as described for Table 12
  Tumor weight ratio(%): 84.6 ± 7.0%
[2]; Table 15, day 4 after compound administration, hTGFβ and hEGF 100 μg/Kg with each compound having antitumor action
  Tumor weight ratio(%): 103.3 ± 15.4%
[2]; Table 20, 4 days after administration of 5-FU, 5-FU single subcutaneous
  Tumor weight % (average value ± standard error): 93.9 ± 6.7%
[3]; Table 2, day 2, hEGF 100 μg/Kg subcutaneous on day 1 and day 3, average ± standard error of 9 mice
  Tumor weight (day 1 = 100): 126.2 ± 5.5
[3]; Table 2, day 3, hEGF 100 μg/Kg subcutaneous on day 1 and day 3, average ± standard error of 9 mice
  Tumor weight (day 1 = 100): 232.7 ± 15.9
[3]; Table 2, day 4, hEGF 100 μg/Kg subcutaneous on day 1 and day 3, average ± standard error of 9 mice
  Tumor weight (day 1 = 100): 280.0 ± 31.7
[3]; Table 3, day 2, [Leu^21 ]-hEGF or hEGF-II 100 μg/Kg subcutaneous on day 1 and day 3, average ± standard error
  Tumor weight (day 1 = 100): 121.2 ± 10.5
[3]; Table 3, day 3, [Leu^21 ]-hEGF or hEGF-II 100 μg/Kg subcutaneous on day 1 and day 3, average ± standard error
  Tumor weight (day 1 = 100): 232.7 ± 15.9
[3]; Table 3, day 4, [Leu^21 ]-hEGF or hEGF-II 100 μg/Kg subcutaneous on day 1 and day 3, average ± standard error
  Tumor weight (day 1 = 100): 280.0 ± 31.7
[4]; day 2
  Tumor weight (day 1 = 100): 114.7 ± 7.5
[4]; day 3
  Tumor weight (day 1 = 100): 115.2 ± 8.3
[4]; day 4
  Tumor weight (day 1 = 100): 134.6 ± 8.9
[4]; day 5
  Tumor weight (day 1 = 100): 187.3 ± 19.3
[4]; day 6
  Tumor weight (day 1 = 100): 230.1 ± 29.4
[5]
  body weight reduction inhibiting effect (body weight minus tumor weight, FIG. 4): no inhibiting effect of weight reduction could be recognized
